# Patent US9248162B2, “Factor H for treatment of rheumatoid arthritis” (Baxter International Inc., priority 2013, dated 2016)
# Values joined by “and” are separate entries in the source; they are usually repeats but may differ in a detail not shown here. Identical values can stand only once. “Also recorded” adds a separate entry of the source. Marks after values point to notes of the source that are not given here.
# Key:
# Format in all cases: in vivo, Balb C mice
# [1] = system: collagen antibody-induced arthritis; assay: Mouse CAIA: ankle histology scores (H & E); set-up: key: 0: normal; 1: minimal to mild loss of staining density with no obvious chondrocyte loss or collagen disruption; 2: mild loss of staining density with focal mild (superficial) chondrocyte loss and/or collagen disruption; 3: moderate loss of staining density with multifocal moderate (depth to middle zone) chondrocyte loss and/or collagen disruption; 4: marked loss of staining density with multifocal marked (depth to deep zone) chondrocyte loss and/or collagen disruption; 5: severe diffuse loss of staining density with multifocal severe (depth to tide mark) chondrocyte loss and/or collagen disruption; details: individual animal, score 0-5, endpoint day 22, listed as Group 4
# Protocol: (§1) Balb C mice (n=10 per cohort) were used to determine the efficacy of Factor H (FH) during […]. The mice were treated with ArthritoMAb (anti-collagen) antibody cocktail (2 mg, i.v.) on day 1, followed 7 days later with an injection of LPS (50 μg, i.p.). On day 8, hind paw volumes were measured for each animal and distributed to various treatment groups.
# (§2) Dosing with the different agents was started on day 8 as described in Table 3.
# (§3) Hind paw volumes were measured on day 8, 11, 12, 13, 15, 19 and 22 (endpoint). The age at start date was 7 to 9 weeks. Body weights were measured bi-weekly to the endpoint (Table 4). At the endpoint, tissue samples were processed for histology and submitted to a pathologist for independent analysis. Sampling 1 was performed at the endpoint. The hind limbs were preserved in 10% formalin. Sampling 2 was performed at the endpoint for group 4 animals. Blood was collected by terminal cardiac puncture. The blood was processed for anti-coagulant. The kidneys were additionally preserved in formalin and followed with 70% EtOH. Samples were scored for inflammation, pannus (granulation tissue), cartilage damage, bone resorption and exostosis (Table 5).
# [2] = system: collagen antibody-induced arthritis; assay: Mouse CAIA: ankle histology scores (H & E); set-up: key: 0: normal; 1: minimal infiltration of inflammatory cells in periarticular tissue; 2: mild infiltration; 3: moderate infiltration with moderate edema; 4: marked infiltration with marked edema; 5: severe infiltration with severe edema; details: individual animal, score 0-5, endpoint day 22, listed as Group 4
# Protocol: as §1, §2, §3
# [3] = system: collagen antibody-induced arthritis; assay: Mouse CAIA: ankle histology scores (H & E); set-up: key to Score From H & E: Inflammation: 0: normal; 1: minimal infiltration of inflammatory cells in periarticular tissue; 2: mild infiltration; 3: moderate infiltration with moderate edema; 4: marked infiltration with marked edema; 5: severe infiltration with severe edema; key to Exostosis, Summary (significance) / Composite, Summary (significance) / Pannus, Summary (significance) / Cartilage, Summary (significance) / Inflammation, Summary (significance): ns: = not significant; *: = P < 0.05; **: = P < 0.01; ***: = P < 0.001; Composite Biohistopathology Score, group value / Composite Biohistopathology Score: scale not given here
# Protocol: as §1, §2, §3
# [4] = system: collagen antibody-induced arthritis; assay: Mouse CAIA: ankle histology scores (H & E); set-up: key: 0: normal; 1: minimal; 2: mild; 3: moderate; 4: marked; 5: severe; details: individual animal, score 0-5, endpoint day 22, listed as Group 4
# Protocol: as §1, §2, §3
# [5] = system: collagen antibody-induced arthritis; assay: Mouse CAIA: hind paw / footpad volume (swelling, disease burden); set-up: Mean Disease Burden / Total Disease Burden (AUC) / Hind Limb Volume, Mean Diff. / Total Disease, Mean Diff.: unit not given here; details: for % Disease Suppression / Total Disease Burden (AUC): days 8-22
# Protocol: as §1
# Factor H was formulated in 20 mM Citrate, 150 mM NaCl, pH=6. […] Ethanercept was formulated as Enbrel™ in saline. Vehicle was formulated in 20 mM Citrate, 150 mM NaCl, pH=6. […] The dosing volume for Factor H and BX12 was 25 mL/kg (0.500 mL/20 g mouse) and adjusted accordingly for body weight.
# as §2
# as §3, with “The” for “Hind paw volumes were measured on day 8, 11, 12, 13, 15, 19 and 22 (endpoint). The”
# [6] = Mouse CAIA: body weight and tolerability
# Protocol: as §1, §2, §3
# [7] = Vehicle vs agent, Dunn's Multiple Comparison Test
# [8] = ankle, group mean ± spread, 10 animals, score 0-5
# [9] = histopathology score, graded 1-5, hind limbs at endpoint, group value
# [10] = Vehicle vs agent, Dunnett's Multiple Comparison Test
# [11] = individual animal, listed as BX12
substance,measurement,setting,value
Factor H,Score From H & E: Cartilage Damage,[1],1 (4×) and 2
same,Score From H & E: Bone Resorption,[2],0
same,Score From H & E: Cartilage Damage,[2],0
same,Score From H & E: Pannus,[2],2 and 0 (4×)
same,Score From H & E: Periosteal/Exostotic Changes,[2],0
same,"Cartilage, Difference in rank sum",[3]; [7],−0.75
same,"Cartilage, Summary (significance)",[3]; [7],ns
same,"Composite, Difference in rank sum",[3]; [7],3.25
same,"Composite, Summary (significance)",[3]; [7],ns
same,"Exostosis, Difference in rank sum",[3]; [7],11.5
same,"Exostosis, Summary (significance)",[3]; [7],* (= P < 0.05)
same,"Inflammation, Difference in rank sum",[3]; [7],6.45
same,"Inflammation, Summary (significance)",[3]; [7],ns
same,"Pannus, Difference in rank sum",[3]; [7],1.9
same,"Pannus, Summary (significance)",[3]; [7],ns
same,"Composite Biohistopathology Score, group value","[3]; ankle, group mean ± spread, 10 animals",3.1 ± 1.2
same,"Score From H & E: Bone Resorption, group value",[3]; [8],0.3 ± 0.2
same,"Score From H & E: Cartilage Damage, group value",[3]; [8],0.6 ± 0.2
same,"Score From H & E: Inflammation, group value",[3]; [8],1.0 ± 0.3
same,"Score From H & E: Pannus, group value",[3]; [8],0.9 ± 0.3
same,"Score From H & E: Periosteal/Exostotic Changes, group value",[3]; [8],0.3 ± 0.3
same,Composite Biohistopathology Score,"[3]; ankle, individual animal, endpoint day 22, listed as Group 4",1 (3×) and 4 and 5 and 2 and 0 (2×) and 13 and 3
same,Score From H & E: Inflammation,"[3]; ankle, individual animal, score 0-5, endpoint day 22, listed as Group 4",0 (4×) and 1 (3×) and 2 (2×) and 3
same,Composite Score,"[3]; histopathology composite, hind limbs at endpoint, group value",3.1 ± 1.2^ns
same,Bone Resorption,[3]; [9],0.3 ± 0.2^ns
same,Cartilage Damage,[3]; [9],0.6 ± 0.2^ns
same,Exostosis,[3]; [9],0.3 ± 0.3
same,Inflammation,[3]; [9],1.0 ± 0.3^ns
same,Pannus,[3]; [9],0.9 ± 0.3^ns
same,histopathology,"[3]; result in words (Table 8, FIG. 11), listed as FH",inhibits exostosis; also recorded: trend toward improved inflammation and bone resorption
same,Score From H & E: Bone Resorption,[4],1 and 2
same,Score From H & E: Periosteal/Exostotic Changes,[4],3
same,"Hind Limb Volume, Mean Diff.",[5]; [10],0.1199
same,"Hind Limb Volume, Summary (significance)",[5]; [10],*** (= P < 0.001)
same,"Total Disease, Mean Diff.",[5]; [10],1.88
same,"Total Disease, Summary (significance)",[5]; [10],*** (= P < 0.001)
same,Hind paw volume,"[5]; day 8 of study, group mean, n 10",0.35 mL
same,Hind paw volume,"[5]; day 8 of study, individual animal, listed as BX12",0.41 mL and 0.4 mL and 0.38 mL and 0.37 mL and 0.35 mL and 0.34 mL and 0.32 mL (2×) and 0.3 mL (2×)
same,Hind paw volume,"[5]; day 11 of study, group mean, n 10",0.39 mL
same,Hind paw volume,"[5]; day 11 of study, individual animal, listed as BX12",0.44 mL and 0.36 mL and 0.38 mL and 0.4 mL and 0.34 mL and 0.39 mL and 0.46 mL and 0.43 mL and 0.35 mL
same,Hind paw volume,"[5]; day 12 of study, group mean, n 10",0.44 mL
same,Hind paw volume,"[5]; day 12 of study, individual animal, listed as BX12",0.5 mL and 0.56 mL and 0.52 mL and 0.4 mL and 0.35 mL and 0.55 mL and 0.37 mL and 0.34 mL and 0.3 mL and 0.45 mL
same,Hind paw volume,"[5]; day 13 of study, group mean, n 10",0.36 mL
same,Hind paw volume,"[5]; day 13 of study, individual animal, listed as BX12",0.32 mL (2×) and 0.54 mL and 0.36 mL and 0.29 mL (2×) and 0.43 mL and 0.37 mL and 0.39 mL and 0.33 mL
same,Hind paw volume,"[5]; day 16 of study, group mean, n 10",0.31 mL
same,Hind paw volume,"[5]; day 16 of study, individual animal, listed as BX12",0.29 mL (2×) and 0.35 mL (2×) and 0.32 mL and 0.28 mL (3×) and 0.42 mL and 0.27 mL
same,Hind paw volume,"[5]; day 19 of study, group mean, n 10",0.34 mL
same,Hind paw volume,"[5]; day 19 of study, individual animal, listed as BX12",0.3 mL (2×) and 0.4 mL and 0.42 mL and 0.31 mL and 0.25 mL and 0.45 mL and 0.29 mL (2×) and 0.36 mL
same,Hind paw volume,"[5]; day 22 of study, group mean, n 10",0.35 mL
same,Hind paw volume,"[5]; day 22 of study, individual animal, listed as BX12",0.38 mL and 0.39 mL and 0.32 mL (2×) and 0.33 mL and 0.42 mL and 0.35 mL and 0.34 mL (2×) and 0.29 mL
same,% Disease Suppression,"[5]; group mean, n 10",97.33%
same,Total Disease Burden (AUC),"[5]; group mean, n 10",0.05
same,% Disease Suppression,[5]; [11],140.2% and 93.5% and 107.8% and 121.6% and 130.8% and 38.3% and 96.1% and 96.9% and 65.5% and 52.1%
same,Total Disease Burden (AUC),[5]; [11],−0.78 and 0.13 and −0.15 and −0.42 and −0.60 and 1.19 and 0.08 (2×) and 0.55 and 0.35
same,Maximum Δ Mean Volume,"[5]; difference between mean combined foot pad volumes on day 8 and on median day of maximal swelling, vehicle 0.21",0.12*** ml
same,Mean Disease Burden,"[5]; group mean AUC of combined footpad volume over baseline, days 8 to 22, vehicle 1.93",0.05***
same,% Disease Suppression (vs Vehicle),[5]; percent decrease in total disease burden relative to vehicle,97.3%
same,foot pad / hind limb swelling,"[5]; result in words (Table 9, FIG. 9), listed as FH",lower mean change in foot pad swelling on the day of maximal swelling compared to vehicle; also recorded: performed well compared to Etanercept
same,Mean Body Weigh at Nadir,"[6]; mouse, in vivo",−7.4%
same,body weights vs. vehicle controls,"[6]; mouse, in vivo",comparable to vehicle controls
same,treatment-related deaths,"[6]; result in words, FH 440 mg/kg i.p. qodx7",no treatment-related deaths
